Measurements reported in the supplement of paper PMC10627819.

Experiments:
Assay in all cases: fitness (endpoint OD595 vs no drug) (fraction); higher = more growth
B. subtilis 168 = system: B. subtilis 168
How it was run: (§1)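 Bacterial growth was followed in 384-well plates seeded at OD595 0.01, with 30 µl per well, or 55 µl for S. pneumoniae, in TSB, LB Lennox or CY at 37 °C. OD595 was read every 30 min for 14 h, and each reading had the first reading subtracted as background. Fitness is the background-corrected optical density at entry into stationary phase divided by the robust mean of the no-drug control wells. This ratio is capped at 1.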

S. pneumoniae D39V = system: S. pneumoniae D39V
How it was run: as §1

S. aureus Newman = conditions: one replicate
How it was run: as §1

O=C(O)[C@H]1/C(=C/CO)O[C@@H]2CC(=O)N21 [Clavulanic acid] + COc1c(N2C[C@@H]3CCCN[C@@H]3C2)c(F)cc2c(=O)c(C(=O)O)cn(C3CC3)c12 [Moxifloxacin]
Conditions | fitness
B. subtilis 168, first compound 1.5 µg/mL, partner 0.0312 µg/mL | 0.0422
B. subtilis 168, first compound 1.5 µg/mL, partner 0.0625 µg/mL | 0.0379
B. subtilis 168, first compound 1.5 µg/mL, partner 0.125 µg/mL | 0.0596
B. subtilis 168, first compound 1.5 µg/mL, partner 2 µg/mL | 0.0304
B. subtilis 168, first compound 1.5 µg/mL, partner 4 µg/mL | 0.0307
B. subtilis 168, first compound 1.5 µg/mL, partner 8 µg/mL | 0.0071
B. subtilis 168, first compound 3 µg/mL, partner 0.0312 µg/mL | 0.0399
B. subtilis 168, first compound 3 µg/mL, partner 0.0625 µg/mL | 0.0399
B. subtilis 168, first compound 3 µg/mL, partner 0.125 µg/mL | 0.0536
B. subtilis 168, first compound 3 µg/mL, partner 2 µg/mL | 0.0289
B. subtilis 168, first compound 3 µg/mL, partner 4 µg/mL | 0.0394
B. subtilis 168, first compound 3 µg/mL, partner 8 µg/mL | 0.0171
B. subtilis 168, first compound 6 µg/mL, partner 0.0312 µg/mL | 0.0317
B. subtilis 168, first compound 6 µg/mL, partner 0.0625 µg/mL | 0.0196
B. subtilis 168, first compound 6 µg/mL, partner 0.125 µg/mL | 0.0562
B. subtilis 168, first compound 6 µg/mL, partner 2 µg/mL | 0.0285
B. subtilis 168, first compound 6 µg/mL, partner 4 µg/mL | 0.0252
B. subtilis 168, first compound 6 µg/mL, partner 8 µg/mL | 0.0156
S. aureus Newman, first compound 0.03125 µg/mL, partner 0.0075 µg/mL | 0.823
S. aureus Newman, first compound 0.03125 µg/mL, partner 0.015 µg/mL | 0.742
S. aureus Newman, first compound 0.03125 µg/mL, partner 0.03 µg/mL | 0.393
S. aureus Newman, first compound 0.0625 µg/mL, partner 0.0075 µg/mL | 0.786
S. aureus Newman, first compound 0.0625 µg/mL, partner 0.015 µg/mL | 0.693
S. aureus Newman, first compound 0.0625 µg/mL, partner 0.03 µg/mL | 0.312
S. aureus Newman, first compound 0.125 µg/mL, partner 0.0075 µg/mL | 0.779
S. aureus Newman, first compound 0.125 µg/mL, partner 0.015 µg/mL | 0.699
S. aureus Newman, first compound 0.125 µg/mL, partner 0.03 µg/mL | 0.417
S. pneumoniae D39V, first compound 0.5 µg/mL, partner 0.005 µg/mL | 0.952
S. pneumoniae D39V, first compound 0.5 µg/mL, partner 0.01 µg/mL | 0.982
S. pneumoniae D39V, first compound 0.5 µg/mL, partner 0.02 µg/mL | 0.896
S. pneumoniae D39V, first compound 0.5 µg/mL, partner 0.0312 µg/mL | 0.0616
S. pneumoniae D39V, first compound 0.5 µg/mL, partner 0.0625 µg/mL | 0.0525
S. pneumoniae D39V, first compound 0.5 µg/mL, partner 0.125 µg/mL | 0.0269
S. pneumoniae D39V, first compound 1 µg/mL, partner 0.005 µg/mL | 0.94
S. pneumoniae D39V, first compound 1 µg/mL, partner 0.01 µg/mL | 0.964
S. pneumoniae D39V, first compound 1 µg/mL, partner 0.02 µg/mL | 0.908
S. pneumoniae D39V, first compound 1 µg/mL, partner 0.0312 µg/mL | 0.198
S. pneumoniae D39V, first compound 1 µg/mL, partner 0.0625 µg/mL | 0.173
S. pneumoniae D39V, first compound 1 µg/mL, partner 0.125 µg/mL | 0.189
S. pneumoniae D39V, first compound 2 µg/mL, partner 0.005 µg/mL | 0.891
S. pneumoniae D39V, first compound 2 µg/mL, partner 0.01 µg/mL | 0.939
S. pneumoniae D39V, first compound 2 µg/mL, partner 0.02 µg/mL | 0.844
S. pneumoniae D39V, first compound 2 µg/mL, partner 0.0312 µg/mL | 0.0371
S. pneumoniae D39V, first compound 2 µg/mL, partner 0.0625 µg/mL | 0.0368
S. pneumoniae D39V, first compound 2 µg/mL, partner 0.125 µg/mL | 0.0371

O=C(O)[C@H]1/C(=C/CO)O[C@@H]2CC(=O)N21 [Clavulanic acid] + COc1ccc(C[C@H](N)C(=O)N[C@H]2[C@@H](O)[C@H](n3cnc4c(N(C)C)ncnc43)O[C@@H]2CO)cc1 [Puromycin]
Conditions | fitness
B. subtilis 168, first compound 1.5 µg/mL, partner 0.39 µg/mL | 0.919
B. subtilis 168, first compound 1.5 µg/mL, partner 0.78 µg/mL | 0.995
B. subtilis 168, first compound 1.5 µg/mL, partner 1.56 µg/mL | 0.888
B. subtilis 168, first compound 3 µg/mL, partner 0.39 µg/mL | 0.872
B. subtilis 168, first compound 3 µg/mL, partner 0.78 µg/mL | 0.871
B. subtilis 168, first compound 3 µg/mL, partner 1.56 µg/mL | 0.851
B. subtilis 168, first compound 6 µg/mL, partner 0.39 µg/mL | 0.787
B. subtilis 168, first compound 6 µg/mL, partner 0.78 µg/mL | 0.76
B. subtilis 168, first compound 6 µg/mL, partner 1.56 µg/mL | 0.775
S. aureus Newman, first compound 0.03125 µg/mL, partner 0.39 µg/mL | 0.952
S. aureus Newman, first compound 0.03125 µg/mL, partner 0.78 µg/mL | 0.91
S. aureus Newman, first compound 0.03125 µg/mL, partner 1.56 µg/mL | ≥ 1
S. aureus Newman, first compound 0.0625 µg/mL, partner 0.39 µg/mL | ≥ 1
S. aureus Newman, first compound 0.0625 µg/mL, partner 0.78 µg/mL | ≥ 1
S. aureus Newman, first compound 0.0625 µg/mL, partner 1.56 µg/mL | 0.99
S. aureus Newman, first compound 0.125 µg/mL, partner 0.39 µg/mL | 0.89
S. aureus Newman, first compound 0.125 µg/mL, partner 0.78 µg/mL | 0.901
S. aureus Newman, first compound 0.125 µg/mL, partner 1.56 µg/mL | 0.894
S. pneumoniae D39V, first compound 0.5 µg/mL, partner 1 µg/mL | ≥ 1
S. pneumoniae D39V, first compound 0.5 µg/mL, partner 2 µg/mL | 0.931
S. pneumoniae D39V, first compound 1 µg/mL, partner 1 µg/mL | 0.937
S. pneumoniae D39V, first compound 1 µg/mL, partner 2 µg/mL | 0.891
S. pneumoniae D39V, first compound 1 µg/mL, partner 4 µg/mL | 0.528
S. pneumoniae D39V, first compound 2 µg/mL, partner 1 µg/mL | 0.72
S. pneumoniae D39V, first compound 2 µg/mL, partner 2 µg/mL | 0.793

O=C(O)[C@H]1/C(=C/CO)O[C@@H]2CC(=O)N21 [Clavulanic acid] + COc1cccc2c1C(=O)c1c(O)c3c(c(O)c1C2=O)C[C@@](O)(C(=O)CO)C[C@@H]3O[C@H]1C[C@H](N)[C@H](O)[C@H](C)O1 [Doxorubicin]
Conditions | fitness
B. subtilis 168, first compound 1.5 µg/mL, partner 0.625 µg/mL | 0.911
B. subtilis 168, first compound 1.5 µg/mL, partner 1.25 µg/mL | 0.9
B. subtilis 168, first compound 1.5 µg/mL, partner 2.5 µg/mL | 0.696
B. subtilis 168, first compound 3 µg/mL, partner 0.625 µg/mL | 0.849
B. subtilis 168, first compound 3 µg/mL, partner 1.25 µg/mL | 0.88
B. subtilis 168, first compound 3 µg/mL, partner 2.5 µg/mL | 0.625
B. subtilis 168, first compound 6 µg/mL, partner 0.625 µg/mL | 0.792
B. subtilis 168, first compound 6 µg/mL, partner 1.25 µg/mL | 0.736
S. aureus Newman, first compound 0.03125 µg/mL, partner 0.625 µg/mL | 0.979
S. aureus Newman, first compound 0.03125 µg/mL, partner 1.25 µg/mL | 0.905
S. aureus Newman, first compound 0.03125 µg/mL, partner 2.5 µg/mL | 0.739
S. aureus Newman, first compound 0.0625 µg/mL, partner 0.625 µg/mL | 0.984
S. aureus Newman, first compound 0.0625 µg/mL, partner 1.25 µg/mL | 0.883
S. aureus Newman, first compound 0.0625 µg/mL, partner 2.5 µg/mL | 0.755
S. aureus Newman, first compound 0.125 µg/mL, partner 0.625 µg/mL | 0.882
S. aureus Newman, first compound 0.125 µg/mL, partner 1.25 µg/mL | 0.803
S. aureus Newman, first compound 0.125 µg/mL, partner 2.5 µg/mL | 0.753
S. pneumoniae D39V, first compound 0.5 µg/mL, partner 0.25 µg/mL | 0.933
S. pneumoniae D39V, first compound 0.5 µg/mL, partner 0.5 µg/mL | 0.954
S. pneumoniae D39V, first compound 0.5 µg/mL, partner 1 µg/mL | 0.838
S. pneumoniae D39V, first compound 1 µg/mL, partner 0.25 µg/mL | 0.885
S. pneumoniae D39V, first compound 1 µg/mL, partner 0.5 µg/mL | 0.853
S. pneumoniae D39V, first compound 1 µg/mL, partner 1 µg/mL | 0.813
S. pneumoniae D39V, first compound 2 µg/mL, partner 1 µg/mL | 0.706
